The target of data set [1] is T1, Oxysterols receptor LXR-beta (Homo sapiens, UniProt P55055).
T1 sequence (P55055 whole entry): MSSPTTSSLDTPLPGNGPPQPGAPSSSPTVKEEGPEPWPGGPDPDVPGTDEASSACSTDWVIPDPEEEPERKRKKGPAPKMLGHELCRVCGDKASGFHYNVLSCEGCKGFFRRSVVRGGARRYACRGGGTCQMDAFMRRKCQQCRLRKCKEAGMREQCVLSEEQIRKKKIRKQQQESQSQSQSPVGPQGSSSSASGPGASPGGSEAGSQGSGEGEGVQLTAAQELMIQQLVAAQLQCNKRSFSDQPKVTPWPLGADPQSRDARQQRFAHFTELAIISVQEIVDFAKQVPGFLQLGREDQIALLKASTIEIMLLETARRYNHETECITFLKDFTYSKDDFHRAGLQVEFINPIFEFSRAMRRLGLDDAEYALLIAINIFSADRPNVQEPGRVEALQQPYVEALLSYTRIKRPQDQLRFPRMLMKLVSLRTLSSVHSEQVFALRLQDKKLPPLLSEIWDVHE
It counts as functional, cell-based.

A further data set addresses Albumin (Bos taurus, UniProt P02769). As to the kind of experiment: Counterscreen for inhibitors of T-cell receptor (TCR)-CD3 interaction: Fluorescence-based biochemical high throughput dose response assay to identify inhibitors of T-cell receptor (TCR)-CD3 interaction using a TAMRA-labeled BSA probe. It counts as functional. For orientation: Counterscreens check selectivity or assay interference.

Data set [2] concerns the target T1, Oxysterols receptor LXR-beta. As to the kind of experiment: LXR agonists, Gal4 luciferase reporter, dose response, counter-screen for ssDAF-12 agonist project, cell-based, luminescence, HEK293, S. stercoralis campaign (AID 720737). Format: functional. The note with it: read-out: IC50 (the source's name). For orientation: A reporter such as luciferase makes a cellular process visible.

Data set [3] is described as follows: Luminescence-based cell-based high throughput dose response assay to identify activators of the DAF-12 from the parasite S. stercoralis (ssDAF-12). Format: functional.
The target of data set [4] is T2, Heat shock factor protein 1 (Mus musculus, UniProt P38532).
T2 sequence (P38532 whole entry): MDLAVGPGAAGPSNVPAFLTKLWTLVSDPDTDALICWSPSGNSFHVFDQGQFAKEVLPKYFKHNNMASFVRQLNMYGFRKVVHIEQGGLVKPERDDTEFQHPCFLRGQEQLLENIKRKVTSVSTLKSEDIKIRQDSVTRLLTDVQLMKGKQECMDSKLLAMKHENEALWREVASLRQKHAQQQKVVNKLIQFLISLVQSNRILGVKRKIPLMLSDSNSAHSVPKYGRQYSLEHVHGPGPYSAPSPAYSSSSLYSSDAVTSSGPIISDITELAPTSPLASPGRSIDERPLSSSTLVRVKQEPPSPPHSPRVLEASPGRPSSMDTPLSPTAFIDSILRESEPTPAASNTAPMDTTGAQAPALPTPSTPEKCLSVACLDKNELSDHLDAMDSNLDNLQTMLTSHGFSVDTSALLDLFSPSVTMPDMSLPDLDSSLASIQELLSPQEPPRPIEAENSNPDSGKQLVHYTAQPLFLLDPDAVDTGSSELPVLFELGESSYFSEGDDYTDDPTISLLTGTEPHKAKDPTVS
As to the kind of experiment: inhibition of MG132-induced HSE-luciferase signal, confirmation, cell-based, NIH3T3, luminescence, dose retest (AID 2382).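 Also: NIH3T3 fibroblasts with HSF1-driven luciferase reporter stressed by proteasome inhibitor MG132; luminescence from HSF1-driven luciferase expression after 8 hours of MG132 stress.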 Format: functional.

The subject of another data set is HEK293. As to the kind of experiment: inhibitors of LMP1-driven NF-kB reporter, dose response, cell-based, HEK293, luciferase, cherry-pick (AID 588343). It counts as functional. The note with it: Homo sapiens.
A short description of data set [5]: Luminescence Cell-Based Dose Retest to Confirm Inhibitors of Cancer Stem Cells. [Related pubchem assays (depositor defined):AID2717, AID2721]. It counts as functional. The settings on record: Homo sapiens.
A short description of data set [6]: inhibitors of Vif binding to APOBEC3G peptide, primary screen, biochemical, TR-FRET, GST-Vif 1-94, biotin-A3G peptide, dose response retest (AID 1117319).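 Also: TR-FRET signal of purified GST-Vif binding a biotinylated A3G peptide; inhibitors lower the FRET signal by blocking Vif and A3G binding.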 It counts as functional.
The target of data set [7] is T3, Cytochrome P450 3A4 (Homo sapiens, UniProt P08684). The settings on record: Potency.
Data set [8] has as its target T2, Heat shock factor protein 1. As to the kind of experiment: HSF1 potentiators in luciferase reporter cells, confirmation, cell-based, NIH3T3, luminescence, dose retest (AID 435004).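 Also: stress induced by proteasome inhibitor MG132 added 30 min after compound; luciferase reporter driven by HSF1 response element in NIH3T3 cells; actives raise luminescence as potentiators of the MG132 stress response.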 It counts as functional.
Data set [9] concerns the target T4, Cytochrome P450 2C9 (Homo sapiens, UniProt P11712).
In data set [10] the target is T3, Cytochrome P450 3A4.
Data set [11] concerns the target Voltage-gated inwardly rectifying potassium channel KCNH2 (Homo sapiens, UniProt Q12809). The settings on record: Potency.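 Also: confirmatory quantitative high-throughput screen measuring inhibition of hERG channel activity.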
Data set [12] deals with T4, Cytochrome P450 2C9. This is another data set of the same source.
Data set [13] is described as follows: intracellular Trypanosoma cruzi inhibitors in host cells – cell-based, plate reader, cherry-pick samples, set 3, dose response (AID 651818).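 Also: compounds incubated with infected cells for about four days.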 Format: functional.
A short description of data set [14]: inhibitors of HIV Env-driven cell fusion, dose response, cherry-pick (AID 652057). It counts as functional, cell-based.
Data set [15] can be described thus: inhibitors of clade B AD8 Env fusion, dose response, cell-based, cherry-pick (AID 652062).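 Also: luciferase signal from cell-cell fusion driven by HIV-1 clade B AD8 Env; potency is for inhibitors of fusion seen as a drop in luminescence.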 It counts as functional.
Data set [16] in a line: ZM109 Env clade C HIV-1 fusion inhibitors, dose response, HeLa effector, CEM target cells, luciferase, cherry-pick (AID 652058). Format: functional, cell-based.
The target in data set [17] is T5, Fatty acid synthase (Homo sapiens, UniProt P49327). As to the kind of experiment: FAS thioesterase domain inhibitors, dose response, biochemical, kinetic fluorescence intensity (AID 624326).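 Also: rate of fluorescence rise from hydrolysis of a fluorogenic O-methyl fluorescein ester substrate.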 Format: functional.
Data set [18] has as its target T5, Fatty acid synthase. As to the kind of experiment: FAS thioesterase domain inhibitors, dose response, biochemical, endpoint fluorescence intensity, uHTS hits (AID 624327).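 Also: fluorescence from hydrolysis of an O-methyl fluorescein acyl ester substrate by the enzyme.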 It counts as functional.
Data set [19] is described as follows: THP-1 cell cytotoxicity, dose response, cytotoxicity control for Vif-APOBEC3G degradation inhibitor project, THP-1 cells (AID 1117359). The settings on record: Human immunodeficiency virus 1, THP-1. Format: functional.
The target of data set [20] is Glucose-6-phosphate 1-dehydrogenase (Homo sapiens, UniProt P11413). As to the kind of experiment: human G6PD enzyme inhibitors, dose response, selectivity assay for P. falciparum G6PD inhibitor project, biochemical, fluorescence (AID 504792). It counts as functional.
The nature of data set [21]: cytotoxicity in KRAS-transformed pancreatic duct cells, primary screen, cell-based, fluorescence, HTS (AID 431).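 Also: cell line used: HPDE-C7K.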 It counts as functional. The settings on record: Homo sapiens.
A short description of data set [22]: cytotoxicity in HPDE-C7 cells, cell-based, fluorescence, HTS (AID 430). The settings on record: Homo sapiens. It counts as functional.

Values joined by “and” are separate entries in the source; they are usually repeats but may differ in a detail not shown here. Equal values may be shown once. Where a name gives a salt, the structure may show the parent alone. Active and inactive are the calls of the source.

This is an account of results in ChEMBL document CHEMBL1201862, “PubChem BioAssay data set” (2004).

Broadly, the IC50 is the point on the concentration scale where inhibition reaches its midpoint. Broadly, the AC50 is the midpoint of the concentration-response curve, whichever way the signal moves. The CC50 is the concentration giving 50% cytotoxicity.

T3 sequence (P08684 whole entry): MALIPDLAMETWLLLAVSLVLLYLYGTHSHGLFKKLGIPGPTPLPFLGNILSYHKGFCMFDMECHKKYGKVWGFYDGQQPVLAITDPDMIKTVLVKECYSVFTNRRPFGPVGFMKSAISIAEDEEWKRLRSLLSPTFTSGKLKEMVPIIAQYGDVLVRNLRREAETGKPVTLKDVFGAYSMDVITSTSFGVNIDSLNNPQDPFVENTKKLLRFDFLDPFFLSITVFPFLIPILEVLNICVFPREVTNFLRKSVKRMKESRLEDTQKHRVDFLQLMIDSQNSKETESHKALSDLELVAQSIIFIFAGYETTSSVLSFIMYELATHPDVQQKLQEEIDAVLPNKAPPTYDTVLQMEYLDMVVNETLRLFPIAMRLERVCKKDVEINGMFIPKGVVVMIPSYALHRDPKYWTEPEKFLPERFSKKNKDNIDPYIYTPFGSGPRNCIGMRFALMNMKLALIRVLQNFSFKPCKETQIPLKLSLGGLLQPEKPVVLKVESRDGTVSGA
Voltage-gated inwardly rectifying potassium channel KCNH2, sequence (Q12809 whole entry): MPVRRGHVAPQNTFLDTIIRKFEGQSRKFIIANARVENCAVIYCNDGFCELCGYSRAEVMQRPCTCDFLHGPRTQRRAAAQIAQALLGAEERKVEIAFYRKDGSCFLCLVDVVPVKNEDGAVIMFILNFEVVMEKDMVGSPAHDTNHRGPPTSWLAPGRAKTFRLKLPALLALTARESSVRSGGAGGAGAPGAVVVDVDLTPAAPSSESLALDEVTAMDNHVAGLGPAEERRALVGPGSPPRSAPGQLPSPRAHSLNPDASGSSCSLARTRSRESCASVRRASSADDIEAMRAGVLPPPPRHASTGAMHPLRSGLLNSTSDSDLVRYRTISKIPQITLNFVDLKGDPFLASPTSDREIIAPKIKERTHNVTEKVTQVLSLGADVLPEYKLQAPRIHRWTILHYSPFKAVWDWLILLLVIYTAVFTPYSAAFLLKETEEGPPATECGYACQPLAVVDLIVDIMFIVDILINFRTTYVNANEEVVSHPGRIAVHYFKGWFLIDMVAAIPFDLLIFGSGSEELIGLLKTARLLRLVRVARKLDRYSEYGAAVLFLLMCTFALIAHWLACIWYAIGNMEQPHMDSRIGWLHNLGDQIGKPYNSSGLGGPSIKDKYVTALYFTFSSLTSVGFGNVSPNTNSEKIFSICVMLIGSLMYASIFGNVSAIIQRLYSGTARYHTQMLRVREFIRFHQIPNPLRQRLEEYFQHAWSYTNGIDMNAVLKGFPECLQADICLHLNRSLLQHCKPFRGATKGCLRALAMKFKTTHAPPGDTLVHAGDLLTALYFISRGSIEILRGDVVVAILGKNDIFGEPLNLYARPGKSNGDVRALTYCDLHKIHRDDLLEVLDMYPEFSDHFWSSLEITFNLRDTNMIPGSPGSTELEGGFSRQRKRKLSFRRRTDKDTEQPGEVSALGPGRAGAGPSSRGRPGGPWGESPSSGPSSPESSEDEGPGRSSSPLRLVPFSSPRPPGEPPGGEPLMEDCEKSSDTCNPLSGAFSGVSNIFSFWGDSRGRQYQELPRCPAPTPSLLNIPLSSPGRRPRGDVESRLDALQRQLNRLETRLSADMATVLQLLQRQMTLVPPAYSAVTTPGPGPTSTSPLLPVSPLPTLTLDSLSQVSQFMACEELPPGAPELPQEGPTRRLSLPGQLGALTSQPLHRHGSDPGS
Albumin, sequence (P02769 whole entry): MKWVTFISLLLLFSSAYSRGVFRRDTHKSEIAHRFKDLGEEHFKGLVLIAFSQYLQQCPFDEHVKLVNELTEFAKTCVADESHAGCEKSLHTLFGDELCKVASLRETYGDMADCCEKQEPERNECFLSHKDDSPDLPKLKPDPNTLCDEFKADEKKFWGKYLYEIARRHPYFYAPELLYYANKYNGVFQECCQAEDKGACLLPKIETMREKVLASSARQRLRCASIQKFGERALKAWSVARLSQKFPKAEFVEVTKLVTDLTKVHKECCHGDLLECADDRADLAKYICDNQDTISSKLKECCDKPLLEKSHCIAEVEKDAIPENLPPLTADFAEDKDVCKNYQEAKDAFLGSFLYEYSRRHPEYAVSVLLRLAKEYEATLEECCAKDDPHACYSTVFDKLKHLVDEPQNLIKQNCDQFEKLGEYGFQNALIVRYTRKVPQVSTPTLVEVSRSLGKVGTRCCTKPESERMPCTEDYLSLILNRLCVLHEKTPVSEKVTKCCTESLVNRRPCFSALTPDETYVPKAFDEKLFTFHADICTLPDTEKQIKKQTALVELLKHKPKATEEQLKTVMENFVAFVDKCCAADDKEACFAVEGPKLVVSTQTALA
T4 sequence (P11712 whole entry): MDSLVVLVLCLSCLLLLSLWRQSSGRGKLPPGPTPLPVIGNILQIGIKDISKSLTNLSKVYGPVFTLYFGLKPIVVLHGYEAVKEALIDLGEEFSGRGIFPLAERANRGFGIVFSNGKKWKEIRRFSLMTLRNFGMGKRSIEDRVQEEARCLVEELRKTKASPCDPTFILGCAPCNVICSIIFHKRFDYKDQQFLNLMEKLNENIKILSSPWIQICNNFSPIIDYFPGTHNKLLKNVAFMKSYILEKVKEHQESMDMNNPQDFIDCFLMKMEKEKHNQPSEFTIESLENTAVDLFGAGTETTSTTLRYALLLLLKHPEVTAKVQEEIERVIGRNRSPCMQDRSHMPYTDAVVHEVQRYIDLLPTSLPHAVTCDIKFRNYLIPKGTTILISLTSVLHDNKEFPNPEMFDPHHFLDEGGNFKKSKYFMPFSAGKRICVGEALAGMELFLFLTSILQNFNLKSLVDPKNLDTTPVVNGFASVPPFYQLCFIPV
Glucose-6-phosphate 1-dehydrogenase, sequence (P11413 whole entry): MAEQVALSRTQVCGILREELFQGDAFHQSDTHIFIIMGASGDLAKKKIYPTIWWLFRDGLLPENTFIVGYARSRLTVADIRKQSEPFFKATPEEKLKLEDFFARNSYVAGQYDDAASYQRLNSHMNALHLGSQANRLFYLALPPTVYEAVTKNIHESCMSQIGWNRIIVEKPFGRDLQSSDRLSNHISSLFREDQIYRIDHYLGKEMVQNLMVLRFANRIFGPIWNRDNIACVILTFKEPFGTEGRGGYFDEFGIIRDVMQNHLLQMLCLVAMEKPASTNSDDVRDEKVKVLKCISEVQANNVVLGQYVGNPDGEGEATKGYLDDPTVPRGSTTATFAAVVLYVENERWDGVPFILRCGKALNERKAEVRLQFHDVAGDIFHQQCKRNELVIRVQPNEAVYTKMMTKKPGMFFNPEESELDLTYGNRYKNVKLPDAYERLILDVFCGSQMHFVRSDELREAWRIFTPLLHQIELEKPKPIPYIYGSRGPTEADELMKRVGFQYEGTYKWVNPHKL

As for `CC(C)NC1=NN=C(c2cccs2)CS1`, the EC50 (in data set [1]; in “cells”) was > 67.6 µM (inactive) throughout.
On to `COc1ccccc1C(=O)NNC(=O)c1ccc(NC(=O)CC(C)C)cc1`, for which the IC50 at Albumin is > 94.1 µM (inactive).
With `CN1C(=O)C(CC(=O)Nc2ccc(F)cc2)N(Cc2cccs2)C1=S` (stereo not drawn), in [2], the EC50 is > 67.5 µM (inactive). Moreover, the IC50 in [3] is > 67.5 µM (inactive).
As for `CN(C)c1ccc(-c2cc3ccccc3c(=O)o2)cc1`, the EC50 (in data set [1]; in the data set “cells”) was > 67.6 µM (inactive) throughout.
As for `OCCN(CCO)CC(O)COc1ccc(C23CC4CC(CC(C4)C2)C3)cc1` (stereo not drawn), the EC50 in [4] was 3.11 µM (active). Moreover, the results for the AC50 (in the data set on HEK293; in data set [5]) were 7.62 µM (active) and 1.05 µM (active), respectively.
Consider `Cc1cccc(OCCNC(=O)c2cncc(Br)c2)c1`, for which the EC50 in [2] is > 67.5 µM (inactive). Further, the IC50 in data set [3] was > 67.5 µM (inactive).
In the case of `CCCCN(C(=O)CSc1cc(C)c2ccc(OC)cc2n1)c1c(N)n(Cc2ccccc2)c(=O)[nH]c1=O`, in data set [2], the EC50 was > 67.5 µM (inactive). Moreover, the IC50 in data set [3] is > 67.5 µM (inactive).
With `COc1ccc2cc(C3(C)NC(=O)N(CC(=O)Nc4c(C)n(C)n(-c5ccccc5)c4=O)C3=O)ccc2c1` (stereo not drawn), in data set [6], the IC50 is > 100 µM (active).
Consider `COC(=O)NC(/C=C/c1ccccc1)[C@]1(C(C)=O)CCCC1=O` (stereo partly drawn), for which, at Cytochrome P450 3A4 [7], the AC50 was 3.98 µM (inconclusive).
`Cc1oc(-c2ccc(-c3ccccc3)cc2)nc1CN(CCO)C(C)C`: the EC50 (in data set [1]; in “cells”) was > 67.5 µM (inactive) throughout.
With `CN(C)NC1CCS(=O)(=O)C1` (stereo not drawn), in data set [6], the half-inhibitory concentration (IC50) is > 100 µM (active).
For `COC(=O)[C@@H](Cc1c[nH]c2ccccc12)NC(=O)c1ccc2c(c1)OCO2`, the figures for the EC50 in [2] and in data set [8] were > 67.6 µM (inactive) and > 260 µM (inactive), respectively. Also, in [3], the IC50 was > 67.6 µM (inactive).
For the compound `CCOc1ccc2[nH]c(SCc3ccc(C(=O)OC)o3)nc2c1`, the IC50 in data set [6] was > 100 µM (active). Further, the EC50 in data set [8] is > 260 µM (inactive).
For `c1ccc(N2CC3COc4ccccc4C3=N2)cc1` (stereo not drawn), the EC50 (in data set [1]; in “cells”) was > 67.4 µM (inactive) in each case.
With `Oc1ccc(C=NNC(=S)Nc2ccccc2)nc1`, in the data set on HEK293, the AC50 was 14.6 µM (active).
As to `COc1[nH]c2ccc(F)cc2c1C(=O)OCC1CCN(CCNS(C)(=O)=O)CC1.NS(=O)(=O)O`, the AC50 at Cytochrome P450 2C9 [9] was 39.8 µM (inconclusive); at Cytochrome P450 3A4 [10], 12.6 µM (inconclusive) and 31.6 µM (inconclusive); in data set [11], 35.5 µM (inconclusive); on Cytochrome P450 2C9 [12], “inconclusive”.
For the compound `C[C@@H]1CCCCO[C@H](CN(C)C(=O)Nc2ccc(C(F)(F)F)cc2)[C@@H](C)CN([C@H](C)CO)C(=O)c2cc(NC(=O)Nc3ccccc3)ccc2O1`, the AC50 in [13] is 2.02 µM (active).
The same measure, in the same setting: to `C[C@@H]1CN([C@H](C)CO)C(=O)Cc2cc(NC(=O)Nc3ccc(C(F)(F)F)cc3)ccc2O[C@@H]1CN(C)Cc1ccc(C(=O)Nc2ccccc2N)cc1` belongs 2.41 µM (active); to `C[C@H]1CN([C@@H](C)CO)C(=O)Cc2cc(NC(=O)Nc3cccc4ccccc34)ccc2O[C@H]1CN(C)Cc1ccc(C(F)(F)F)cc1`, 5.49 µM (active).
Same read-out and setting: to `C[C@@H]1CN([C@H](C)CO)C(=O)Cc2cc(NC(=O)C3CCCCC3)ccc2O[C@@H]1CN(C)Cc1ccc(C(=O)Nc2ccccc2N)cc1` belongs 3.51 µM (active); to `COc1ccc(NC(=O)Nc2ccc3c(c2)CC(=O)N([C@@H](C)CO)C[C@H](C)[C@@H](CN(C)Cc2ccc(C(=O)Nc4ccccc4N)cc2)O3)cc1`, 3.65 µM (active).
For `CO[C@H](CN(C)S(=O)(=O)c1ccc(Cl)cc1)[C@H](C)CN([C@@H](C)CO)S(=O)(=O)c1cccc(Cl)c1`, the values for the AC50 in data set [14], in data set [15] and in data set [16] were 3.31 µM (active), 17.6 µM (active) and 3.66 µM (active), respectively.
For the compound `O=C(C[C@H]1C[C@H]2c3cc(NC(=O)NC4CCCC4)ccc3O[C@H]2[C@@H](CO)O1)NC1CCCCC1`, the AC50 in data set [15] was 1.17 µM (active); in data set [16], 24.5 µM (active).
As to `O=C(NC(C(=O)N/N=C/c1cc([N+](=O)[O-])ccc1O)c1nnc(O)c2ccccc12)c1ccccc1` (stereo not drawn), the IC50 on Albumin is > 94.1 µM (inactive); on Fatty acid synthase [17], 2.55 µM (active); at Fatty acid synthase [18] it was 2.76 µM (active).
On to `CC(/C=N/NC(=O)Cn1cnc2ccccc21)=C\c1ccccc1`, for which the EC50 in data set [4] is > 195 µM (not active); in [2] it was > 67.5 µM (inactive). Further, in [3], the IC50 is > 67.5 µM (inactive).
In the case of `C=CCN1CCc2cccc3c2[C@H]1Cc1ccc(O)c(O)c1-3`, the CC50 in data set [19] is > 40 µM (active). Also, the IC50 in data set [20] is > 80 µM (inactive). Moreover, in [11], the AC50 is 11.2 µM (inconclusive). For the same compound, in [8], the EC50 was > 260 µM (inactive).
Regarding `NNCc1ccccc1` [BENZYLHYDRAZINE HYDROCHLORIDE], the AC50 at Cytochrome P450 3A4 [7] was 7.94 µM (inconclusive).
For the compound `O=c1c(O)c(-c2ccccc2)oc2ccccc12` [FLAVONOL], at Cytochrome P450 3A4 [7], the AC50 was 25.1 µM (inconclusive).
Turning to `COc1cc2c(cc1OC)C(=O)OC2` [METAMECONINE], the AC50 at Cytochrome P450 3A4 [7] is 12.6 µM (inconclusive).
In the case of `O=C(Oc1ccccc1)c1ccccc1O` [PHENYL SALICYLATE], the AC50 in data set [11] is 50.1 µM (inconclusive).
In the case of `CC1=C(/C=C/C(C)=C/C=C/C(C)=C/C(=O)O)C(C)(C)CCC1` [TRETINOIN], the EC50 in data set [21] and in [22] was > 20 µM (not active) in each case. On Cytochrome P450 3A4 [7], the AC50 is 39.8 µM (inconclusive).
